SMILES strings stand for the structures. Active and inactive are the calls of the source.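 How the source made its calls: active means 40% activation versus positive control reached by fitted dose-response curve at or below highest valid tested dose; inconclusive means poor fit quality, or flat fit with activation between 30% and 70%; inactive means the rest.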

The assay in a line: inactive X chromosome reactivation in XiGFP fibroblasts, dose response, imaging, 68-5-11 mouse fibroblasts, GFP, cherry-pick (AID 743394).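 Further: sensitizer 5-aza-dC present in the wells at 0.5 mM final.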 To be noted: 68-5-11 mouse fibroblast XiGFP reporter, % GFP-positive imaging, 3 d; at 19.5 µM (top of the series); cells co-treated with 5-aza-dC sensitizer; scaled: neutral wells 0, ellipticine wells 100.
On to `CCOc1ccc(C(Nc2cccnc2)c2cc(Cl)c3cccnc3c2O)cc1` (centres undefined), for which the activation was 8.68% (inactive).

Regarding `O=c1[nH]c(=O)n([C@H]2C[C@H](O)[C@@H](CO)O2)cc1C(F)(F)F`, the activation was -0.032% (inactive).

For `COC(C(=O)NCc1ccc(C)cc1)c1ccccc1` (centres undefined), the activation was 0.114% (inactive).

As for `OC[C@@H]1Nc2ccc(C#Cc3ccccc3)cc2[C@H]2[C@@H]1CCN2Cc1nccs1`, the activation was 0.161% (inactive).

Regarding `O=C(N/N=C/c1ccc(Br)s1)c1ccc([N+](=O)[O-])cc1`, the activation is 1.59% (inactive).

For `CC1CCN(C(=O)Cn2nnc(-c3ccccc3)n2)CC1`, the activation is 0.315% (inactive).

As for `CSc1ccc(CN2C(=O)NC3(CCCCCCC3)C2=O)cc1`, the activation was 0.616% (inactive).

In the case of `CC(=NNc1ccc2ccccc2n1)c1ccccn1`, the activation was 1.93% (inactive).

Turning to `CCN(CC)c1ccc(/C=C/C(=O)C2C(=O)C=C(C)OC2=O)cc1` (centres undefined), the activation is 3.58% (inactive).

For `Cc1ccc(Cn2cc(/C=N/Nc3ccc([N+](=O)[O-])cn3)c3ccccc32)cc1`, the activation is 1.53% (inactive).

For `COc1ccc(OC)c(NC(=O)Nc2ccc3[nH]ccc3c2)c1`, the activation is -0.035% (inactive).

With `COc1ccc(Cc2c(O)nc(SCC(=O)NC34CC5CC(CC(C5)C3)C4)[nH]c2=O)cc1`, the activation is 0.41% (inactive).

For the compound `CCOC(=O)c1sc(Nc2ccc(Br)cc2)nc1C`, the activation was 0.082% (inactive).

With `Cc1ccc(-c2[nH]c(=S)[nH]c(=O)c2C#N)cc1`, the activation is -0.003% (inactive).

In the case of `COc1ccccc1OCCOc1ccc(/C=C2\C(=N)N3N=C(S(C)(=O)=O)SC3=NC2=O)cc1`, the activation is 0.042% (inactive).

Take `CCN(CC(=O)Nc1sc2c(c1C#N)CCCC2)CC(=O)NC1CCS(=O)(=O)C1` (centres undefined): the activation was -0.032% (inactive).

`CCC1Oc2ccc(C)cc2N(CC(=O)N2CCCC2)C1=O` (centres undefined): the activation was 0.113% (inactive).

As to `Cc1ccc(S(=O)(=O)N2CCOCC2)cc1C(=O)OCC(=O)NC1CCS(=O)(=O)C1` (centres undefined), the activation was -0.034% (inactive).

Regarding `CCc1ccc(N2CC(C(=O)Nc3cc(C)on3)CC2=O)cc1` (centres undefined), the activation was -0.034% (inactive).

Consider `O=CNc1ccc2c(c1)Cc1cc([N+](=O)[O-])ccc1-2`, for which the activation was 0.191% (inactive).

With `Oc1ccc(Br)cc1C=Nc1ccc2c3c(cccc13)CC2`, the activation was 0.056% (inactive).

With `CC1CN(Cc2c(O)ccc3c2oc(=O)c2ccccc23)CC(C)O1` (centres undefined), the activation was -0.012% (inactive).

As for `O=C(c1ccc(S(=O)(=O)c2ccc(Cl)cc2)cc1)N1CCOCC1`, the activation is 0.117% (inactive).

With `CCOC(=O)c1ccc(NC(=O)C2CCC(CNc3c(N4CCOCC4)c(=O)c3=O)CC2)cc1` (centres undefined), the activation was 0.016% (inactive).

Turning to `CCC(=O)N1CC(=O)N2[C@@H](CO)[C@@H](c3ccc(-c4ccccc4F)cc3)[C@@H]2C1`, the activation was 0% (inactive).

Regarding `COc1ccccc1C(=O)Nc1nnc(S(=O)(=O)N2CCCCCC2)s1`, the activation was 0.014% (inactive).

For the compound `O=C(c1nc(SCc2ccc([N+](=O)[O-])cc2)n2ccccc12)C(F)(F)F`, the activation was 0.007% (inactive).

For the compound `C(CCCN1CCCCC1)CCN1CCCCC1`, the activation is 0.047% (inactive).

For the compound `NNC(=O)c1sc(-c2ccc(Cl)cc2)cc1N`, the activation is 2.31% (inactive).

As for `ClC1CCCCC1n1nnc2ccccc21` (centres undefined), the activation was 0.006% (inactive).

Take `CCOCCCn1c(=NC(C)=O)c(C#N)cc2c(=O)n3cccc(C)c3nc21`: the activation is 0.035% (inactive).

Consider `C[C@@H]1CN(C)C(=O)Cc2cc(N(C)C)ccc2O[C@@H]1CN(C)S(C)(=O)=O`, for which the activation is 0.115% (inactive).

`Cc1ccc(Nc2nc(N)nc(COC(=O)C3=COCCO3)n2)cc1`: the activation was 0.004% (inactive).

With `O=C(CCC(=O)Nc1cccnc1)Nc1cccnc1`, the activation is 0.049% (inactive).
